Results from patent US20170216296A1, “METHODS OF TREATING HYPERGLYCEMIA” (Concert Pharmaceuticals, Inc., priority 2014, published 2017).

Tests used:
[1] = tested on: HbAlc; assay: Phase 2 placebo-controlled clinical trial, HbAlc in whole blood; format: in vivo, human; conditions: for least square mean HbAlc value: 600 mg twice daily, preliminary, FIG. 1
Method: A Phase 2 placebo-controlled clinical trial of Compound (V) was conducted in patients with type 2 diabetic kidney disease and macroalbuminuria. The purpose of the trial was to compare Compound (V) to placebo in terms of safety and efficacy with respect to measures of renal function such as urinary albumin to creatinine ratio, serum creatinine levels, and estimated glomerular filtration rate. HbAlc was measured but was not an intended endpoint of the trial. Thus, while the study was controlled for other medications, it was not controlled for anti-glycemic medications nor were the placebo and treated groups matched for baseline HbAlc levels.
All patients enrolled in the clinical trial were concurrently treated with angiotensin modulators. The clinical trial consists of three parts, two of which were completed and a third part that is on-going. Part 1 was a double-blind, parallel, two-arm, placebo-controlled study evaluating the safety and efficacy of 600 mg of Compound (V) twice daily for 24 weeks. 182 patients were enrolled in this first part of the trial. Part 2 was a blinded 24-week extension study in which all patients who completed Part 1 were eligible to continue receiving 600 mg of Compound (V) or placebo twice daily. 143 patients were enrolled in this part of the clinical trial and have completed dosing. 123 of the 143 patients that were enrolled in Part 2 of the clinical trial completed Part 2. The combined 48 weeks of data from Parts 1 and 2 of the clinical trial have been analyzed. 102 patients enrolled in Part 3 which is a 48 week open-label extension study that is on-going. All patients who completed Part 2 were eligible to receive 600 mg of Compound (V) twice daily.
The key criteria for patients to be included in the clinical trial were (a) eGFR from 23 to 89 mL/min/1.73 m2, a measure of kidney function which indicates mild to moderately severe type 2 diabetic kidney disease; (b) having been on a stable angiotensin modulation regimen for a minimum of four weeks prior to initiating screening and nine weeks prior to initiating dosing; (c) blood pressure less than or equal to 145/90 mm Hg; (d) glycosylated hemoglobin Alc (HbAlc) less than or equal to 10.5%; and (e) UACR greater than or equal to 200 mg/g in male patients and 300 mg/g in female patients, ratios of albumin to creatinine that are indicative of substantial kidney damage in men and women, but not more than 5,000 mg/g, a ratio indicative of severe kidney disease. HbAlc in whole blood samples was measured by ion-exchange chromatography using a TOSOH HLC-723G8 HPLC analyzer.
The procedure is similar to the one described in the Laboratory Procedure Manual of the Centers for Disease Control and Prevention. See www.cdc.gov/nchs/data/nhanes/nhanes_11_12/GHB_met_G_Tosoh_G8.pdf. The TOSOH instrument can reliably detect HbAlc levels in the range of 4.0-16.8%.
Patients were sampled at weeks 0, 12, 24, 36 and 48 weeks (see FIG. 1). The value at 0 weeks was calculated as the mean of values recorded on Days −28, −7 and −1. In other words, the patients were tested 4 weeks before the trial, one week before the trial and one day before. The mean value of the measurements was recorded as Day 0 for the trial.

[2] = tested on: HbAlc; conditions: 100 patients with type 2 diabetes; cited from earlier work

Compound	lowering of HbAlc in the treated group relative to placebo ([1]; Part 1 and Part 2 (48 weeks), p=0.0001)	least square mean HbAlc value ([1]; after Part 1 and Part 2 of the trial (48 weeks))	least square mean HbAlc value ([1]; beginning of the trial (week 0, mean of Days -28, -7 and -1), patients with type 2 diabetic kidney disease and macroalbuminuria)	effect on hemoglobin glycosylation ([1]; group receiving compound, sampled at weeks 0, 12, 24, 36 and 48)	drop in AlC ([1]; overall group change from baseline, FIG. 2 (week 12), placebo 0.23 increase, statistically significant)	patients with lower HbAlc after 12 weeks ([1]; week 12 change from baseline, number of patients/patients in arm, FIG. 2, placebo 33/79)	effect on HbAlC [2]
[2H]C([2H])([2H])[C@H](O)C([2H])([2H])CCCn1c(=O)c2c(ncn2C)n(C)c1=O [Compound (V)]	statistically significant	7.1	7.7	positive effect	0.35	57/83	
CC(=O)CCCCn1c(=O)c2c(ncn2C)n(C)c1=O [Pentoxifylline]							no effect
